{
  "source": "BindingDB's records for PubMed 10454469",
  "about": "(Universidad De Sevilla, 1999)",
  "target": "Gamma-aminobutyric acid receptor subunit alpha-1 (Rattus norvegicus, UniProt P62813)",
  "sequence (P62813 whole entry)": "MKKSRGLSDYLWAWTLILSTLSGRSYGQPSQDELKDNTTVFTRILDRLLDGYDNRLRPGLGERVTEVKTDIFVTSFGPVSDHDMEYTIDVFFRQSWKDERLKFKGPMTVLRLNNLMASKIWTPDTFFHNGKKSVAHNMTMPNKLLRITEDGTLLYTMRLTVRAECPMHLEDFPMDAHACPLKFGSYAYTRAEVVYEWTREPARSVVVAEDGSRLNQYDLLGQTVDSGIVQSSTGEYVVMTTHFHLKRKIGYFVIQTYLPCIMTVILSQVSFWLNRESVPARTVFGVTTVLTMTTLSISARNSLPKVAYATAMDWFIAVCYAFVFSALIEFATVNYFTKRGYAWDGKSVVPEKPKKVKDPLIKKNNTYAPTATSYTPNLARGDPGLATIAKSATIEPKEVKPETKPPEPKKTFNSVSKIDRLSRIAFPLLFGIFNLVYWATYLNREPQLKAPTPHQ",
  "note": "Values joined by “and” are separate entries in the source; they are usually repeats but may differ in a detail not shown here. Equal values may be shown once.",
  "data": [
    {"compound": "Cc1nnc2ccc(-c3cccc(C(F)(F)F)c3)nn12", "values": [
      {"measurement": "Ki", "result": "0.7 nM and 0.81 nM"}
    ]}
  ]
}
